Calls of active or inactive are those of the source. How the calls were made is not given here.
Tested on: CCRIS mutagenicity, Ames/micronucleus/aberration tests
Test: CCRIS mutagenicity studies
[1] = Test System: AMES SALMONELLA TYPHIMURIUM, Strain/Indicator: TA98, Metabolic Activation: NONE, Method: STANDARD PLATE
[2] = Test System: AMES SALMONELLA TYPHIMURIUM, Strain/Indicator: TA98, Metabolic Activation: RAT, LIVER, S-9, AROCLOR 1254, Method: STANDARD PLATE
[3] = Test System: AMES SALMONELLA TYPHIMURIUM, Strain/Indicator: TA100, Metabolic Activation: NONE, Method: STANDARD PLATE
[4] = Test System: AMES SALMONELLA TYPHIMURIUM, Strain/Indicator: TA100, Metabolic Activation: RAT, LIVER, S-9, AROCLOR 1254, Method: STANDARD PLATE
[5] = Test System: AMES SALMONELLA TYPHIMURIUM, Strain/Indicator: TA1535, Metabolic Activation: NONE, Method: STANDARD PLATE
[6] = Test System: AMES SALMONELLA TYPHIMURIUM, Strain/Indicator: TA98, Metabolic Activation: NONE, Method: PREINCUBATION
[7] = Test System: AMES SALMONELLA TYPHIMURIUM, Strain/Indicator: TA98, Metabolic Activation: RAT LIVER S-9, PHENOBARBITAL AND BETA-NAPHTHOFLAVONE, Method: PREINCUBATION
[8] = Test System: AMES SALMONELLA TYPHIMURIUM, Strain/Indicator: TA100, Metabolic Activation: NONE, Method: PREINCUBATION
[9] = Test System: AMES SALMONELLA TYPHIMURIUM, Strain/Indicator: TA100, Metabolic Activation: RAT LIVER S-9, PHENOBARBITAL AND BETA-NAPHTHOFLAVONE, Method: PREINCUBATION
[10] = Test System: AMES SALMONELLA TYPHIMURIUM, Strain/Indicator: TA1535, Metabolic Activation: NONE, Method: PREINCUBATION
[11] = Test System: AMES SALMONELLA TYPHIMURIUM, Strain/Indicator: TA1535, Metabolic Activation: RAT LIVER S-9, PHENOBARBITAL AND BETA-NAPHTHOFLAVONE, Method: PREINCUBATION
[12] = Test System: AMES SALMONELLA TYPHIMURIUM, Strain/Indicator: TA1537, Metabolic Activation: NONE, Method: PREINCUBATION
[13] = Test System: AMES SALMONELLA TYPHIMURIUM, Strain/Indicator: TA1537, Metabolic Activation: RAT LIVER S-9, PHENOBARBITAL AND BETA-NAPHTHOFLAVONE, Method: PREINCUBATION
[14] = Test System: AMES SALMONELLA TYPHIMURIUM, Strain/Indicator: TA1538, Metabolic Activation: NONE, Method: PREINCUBATION
[15] = Test System: AMES SALMONELLA TYPHIMURIUM, Strain/Indicator: TA1538, Metabolic Activation: RAT LIVER S-9, PHENOBARBITAL AND BETA-NAPHTHOFLAVONE, Method: PREINCUBATION
[16] = Test System: E.COLI, Strain/Indicator: WP2UVRA, Metabolic Activation: NONE, Method: PREINCUBATION
[17] = Test System: E.COLI, Strain/Indicator: WP2UVRA, Metabolic Activation: RAT LIVER S-9, PHENOBARBITAL AND BETA-NAPHTHOFLAVONE, Method: PREINCUBATION

In the case of O=[N+]([O-])C1=Cc2c3ccc4ccccc4c3cc3cccc1c23, the mutagenic call [1] is reported as “active; positive”, the mutagenic call [2] is reported as “active; positive” and the mutagenic call [3] is reported as “inactive; negative”. For the same compound, the mutagenic call [4] was “inactive; negative”, the mutagenic call [5] was “inactive; negative” and the mutagenic call (Test System: AMES SALMONELLA TYPHIMURIUM, Strain/Indicator: TA1535, Metabolic Activation: RAT, LIVER, S-9, AROCLOR 1254, Method: STANDARD PLATE) was “inactive; negative”. For the same compound, the mutagenic call (Test System: AMES SALMONELLA TYPHIMURIUM, Strain/Indicator: TA1537, Metabolic Activation: NONE, Method: STANDARD PLATE) was “active; positive”, the mutagenic call (Test System: AMES SALMONELLA TYPHIMURIUM, Strain/Indicator: TA1537, Metabolic Activation: RAT, LIVER, S-9, AROCLOR 1254, Method: STANDARD PLATE) was “active; positive” and the mutagenic call (Test System: AMES SALMONELLA TYPHIMURIUM, Strain/Indicator: TA1538, Metabolic Activation: NONE, Method: STANDARD PLATE) was “active; positive”. The mutagenic call (Test System: AMES SALMONELLA TYPHIMURIUM, Strain/Indicator: TA1538, Metabolic Activation: RAT, LIVER, S-9, AROCLOR 1254, Method: STANDARD PLATE) was “inactive; negative”.
COC1=CC(=O)c2c(nc(C)c3c2[nH]c2ccncc23)C1=O was tested, and the mutagenic call (Test System: AMES SALMONELLA TYPHIMURIUM, Strain/Indicator: TA97A, Metabolic Activation: NONE, Method: STANDARD PLATE) was “active; positive”, the mutagenic call (Test System: AMES SALMONELLA TYPHIMURIUM, Strain/Indicator: TA97A, Metabolic Activation: RAT LIVER S-9, AROCLOR 1254, Method: STANDARD PLATE) was “inactive; negative” and the mutagenic call [1] was “active; positive”. The mutagenic call (Test System: AMES SALMONELLA TYPHIMURIUM, Strain/Indicator: TA98, Metabolic Activation: RAT LIVER S-9, AROCLOR 1254, Method: STANDARD PLATE) was “active; positive”, the mutagenic call [3] was “active; positive” and the mutagenic call (Test System: AMES SALMONELLA TYPHIMURIUM, Strain/Indicator: TA100, Metabolic Activation: RAT LIVER S-9, AROCLOR 1254, Method: STANDARD PLATE) was “active; positive”. For the same compound, the mutagenic call (Test System: AMES SALMONELLA TYPHIMURIUM, Strain/Indicator: TA102, Metabolic Activation: NONE, Method: STANDARD PLATE) was “active; positive” and the mutagenic call (Test System: AMES SALMONELLA TYPHIMURIUM, Strain/Indicator: TA102, Metabolic Activation: RAT LIVER S-9, AROCLOR 1254, Method: STANDARD PLATE) was “active; positive”.
[O-][Cl+3]([O-])([O-])O was tested, and the mutagenic call [6] was “inactive; negative”, the mutagenic call [7] was “inactive; negative” and the mutagenic call [8] was “inactive; negative”. The mutagenic call [9] was “inactive; negative”, the mutagenic call [10] was “inactive; negative” and the mutagenic call [11] was “inactive; negative”. The mutagenic call [12] was “inactive; negative”, the mutagenic call [13] was “inactive; negative” and the mutagenic call [14] was “inactive; negative”. The mutagenic call [15] was “inactive; negative”, the mutagenic call [16] was “inactive; negative” and the mutagenic call [17] was “inactive; negative”.
ClCBr was tested, and the mutagenic call (Test System: AMES SALMONELLA TYPHIMURIUM, Strain/Indicator: TA97, Metabolic Activation: NONE, Method: STANDARD PLATE) was “active; positive”, the mutagenic call (Test System: AMES SALMONELLA TYPHIMURIUM, Strain/Indicator: TA97, Metabolic Activation: RAT, LIVER, S-9, AROCLOR 1254, Method: STANDARD PLATE) was “active; positive” and the mutagenic call (Test System: AMES SALMONELLA TYPHIMURIUM, Strain/Indicator: TA98, Metabolic Activation: HAMSTER, LIVER, S-9, AROCLOR 1254 (30%), Method: PREINCUBATION) was “active; positive”. For the same compound, the mutagenic call [6] was “active; positive”, the mutagenic call [1] was “active; positive” and the mutagenic call (Test System: AMES SALMONELLA TYPHIMURIUM, Strain/Indicator: TA98, Metabolic Activation: RAT, LIVER, S-9, AROCLOR 1254 (30%), Method: PREINCUBATION) was “active; positive”. The mutagenic call [2] was “active; positive”, the mutagenic call (Test System: AMES SALMONELLA TYPHIMURIUM, Strain/Indicator: TA100, Metabolic Activation: HAMSTER, LIVER, S-9, AROCLOR 1254 (30%), Method: PREINCUBATION) was “active; positive” and the mutagenic call (Test System: AMES SALMONELLA TYPHIMURIUM, Strain/Indicator: TA100, Metabolic Activation: NONE, Method: DESICCATOR) was “active; positive”. The mutagenic call [8] was “active; positive”, the mutagenic call [3] was “active; positive” and the mutagenic call (Test System: AMES SALMONELLA TYPHIMURIUM, Strain/Indicator: TA100, Metabolic Activation: RAT, LIVER, S-9, AROCLOR 1254 (30%), Method: PREINCUBATION) was “active; positive”. For the same compound, the mutagenic call [4] was “active; positive”, the mutagenic call (Test System: AMES SALMONELLA TYPHIMURIUM, Strain/Indicator: TA104, Metabolic Activation: NONE, Method: STANDARD PLATE) was “active; positive” and the mutagenic call (Test System: AMES SALMONELLA TYPHIMURIUM, Strain/Indicator: TA104, Metabolic Activation: RAT, LIVER, S-9, AROCLOR 1254, Method: STANDARD PLATE) was “inactive; negative”.
With CCC1(O)C(=O)OCc2c1cc1n(c2=O)Cc2cc3c(N)cccc3nc2-1 (configuration not stated) the mutagenic call (Test System: Mouse lymphoma, Strain/Indicator: L5178Y (tk+/tk-), Metabolic Activation: None, Method: Suspension/plate) was “active; positive” and the mutagenic call (Test System: Mouse lymphoma, Strain/Indicator: L5178Y (tk+/tk-), Metabolic Activation: Rat, Liver, S-9, Aroclor 1254, Method: Suspension/plate) was “active; positive”.
With Cc1ccc([N+](=O)[O-])cc1N=[N+]([O-])c1cc([N+](=O)[O-])ccc1C the mutagenic call (Test System: AMES SALMONELLA TYPHIMURIUM, Strain/Indicator: TA98, Metabolic Activation: NONE, Method: SUSPENSION/PLATE) was “inactive; negative”, the mutagenic call (Test System: AMES SALMONELLA TYPHIMURIUM, Strain/Indicator: TA98, Metabolic Activation: RAT, LIVER, S-9, PHENOBARBITAL AND 5,6-BENZOFLAVONE, Method: SUSPENSION/PLATE) was “inactive; negative” and the mutagenic call (Test System: AMES SALMONELLA TYPHIMURIUM, Strain/Indicator: TA100, Metabolic Activation: NONE, Method: SUSPENSION/PLATE) was “inactive; negative”. For the same compound, the mutagenic call (Test System: AMES SALMONELLA TYPHIMURIUM, Strain/Indicator: TA100, Metabolic Activation: RAT, LIVER, S-9, PHENOBARBITAL AND 5,6-BENZOFLAVONE, Method: SUSPENSION/PLATE) was “inactive; negative”.
In the case of c1ccc(Cc2ccccc2OCC2CO2)cc1 (configuration not stated), the mutagenic call [3] is reported as “active; positive” and the mutagenic call [5] is reported as “active; positive”.
With Clc1ccc(C(Cl)(Cl)Cl)cc1 the mutagenic call (End Point: IN VITRO CHROMOSOMAL ABERRATIONS, Test System: CHL CELLS, Metabolic Activation: NONE) was “active; positive (structural changes)”, the mutagenic call (End Point: IN VITRO CHROMOSOMAL ABERRATIONS, Test System: CHL CELLS, Metabolic Activation: RAT, LIVER, S-9, SODIUM PHENOBARBITAL AND 5,6-BENZOFLAVONE) was “active; positive (structural changes)” and the mutagenic call [6] was “inactive; negative”. For the same compound, the mutagenic call [7] was “active; positive”, the mutagenic call [8] was “inactive; negative” and the mutagenic call [9] was “active; positive”. The mutagenic call [10] was “inactive; negative”, the mutagenic call [11] was “active; positive” and the mutagenic call [12] was “inactive; negative”. The mutagenic call [13] was “active; positive”, the mutagenic call [14] was “inactive; negative” and the mutagenic call [15] was “inactive; negative”. For the same compound, the mutagenic call [16] was “inactive; negative” and the mutagenic call [17] was “active; positive”.
